Results: article PMC10794188, “Structure-based development of 3,5-dihydroxybenzoyl-hydrazineylidene as tyrosinase inhibitor; in vitro and in silico study” (Scientific Reports, 2024)
Like-named read-outs stand apart in the source and are kept apart here.

How the values were obtained:
mushroom tyrosinase = conditions: cited from earlier work
tyrosinase [1] = assay: Tyrosinase inhibitory assay (colorimetric, L-DOPA substrate); format: biochemical; conditions: for IC50: read-out: IC50 (µM) ± RSD
Description: The tyrosinase inhibitory activities of derivatives were performed according to the previously reported procedures[26],[27]. All the test samples were first dissolved in DMSO at dilution to the required final concentrations. Initially, in a 96-well microplate, 10 µl of test samples were added to 160 µl of phosphate buffer (pH = 6.8), and then 10 µl tyrosinase was added. After the mixture was pre-incubated at 28 °C for 20 min, 20 µl of L-DOPA solution was added. DMSO without test compounds was used as the control, and kojic acid was used as a positive control. After 8 min incubation absorbance of samples was measured at 490 nm. Each assay was conducted as three separate replicates.

tyrosinase [2] = assay: Enzyme kinetic study (Lineweaver–Burk, L-DOPA); format: biochemical
Description: The Lineweaver–Burk reciprocal plot was provided by plotting 1/V against 1/[S] at variable concentrations of the L-DOPA.

skin melanoma cells = system: skin melanoma cells; design: method as in PMID 34140181; conditions: 8 µM; cited from earlier work

Structure (SMILES)	% inhibition at 100 µM (tyrosinase [1])	other results
O=C(/C=C/c1ccc(O)cc1)c1cc(O)cc(O)c1 [A]		IC50 (mushroom tyrosinase): 8.1 µM
O=C(Cn1cc(COc2ccc(C=NNC(=O)c3cc(O)cc(O)c3)cc2)nn1)Nc1ccccc1 [Compound 11a, 2-(4-((4-((2-(3,5-dihydroxybenzoyl)hydrazineylidene)methyl)phenoxy)methyl)-1H-1,2,3-triazol-1-yl)-N-phenylacetamide]	53.87 ± 1.53%	IC50 (tyrosinase [1]): 90.5 µM
O=C(Cn1cc(COc2ccc(C=NNC(=O)c3cc(O)cc(O)c3)cc2)nn1)Nc1ccccc1F [Compound 11b, 2-(4-((4-((2-(3,5-dihydroxybenzoyl)hydrazono)methyl)phenoxy)methyl)-1H-1,2,3-triazol-1-yl)-N-(2-fluorophenyl)acetamide]	22.99 ± 1.20%	
O=C(Cn1cc(COc2ccc(C=NNC(=O)c3cc(O)cc(O)c3)cc2)nn1)Nc1ccc(F)cc1 [Compound 11c, 2-(4-((4-((2-(3,5-dihydroxybenzoyl)hydrazono)methyl)phenoxy)methyl)-1H-1,2,3-triazol-1-yl)-N-(4-fluorophenyl)acetamide]	32.28 ± 2.76%	
O=C(Cn1cc(COc2ccc(C=NNC(=O)c3cc(O)cc(O)c3)cc2)nn1)Nc1ccc(Cl)cc1 [Compound 11d, N-(4-chlorophenyl)-2-(4-((4-((2-(3,5-dihydroxybenzoyl)hydrazineylidene)methyl)phenoxy)methyl)-1H-1,2,3-triazol-1-yl)Acetamide]	22.82 ± 0.53%	
O=C(Cn1cc(COc2ccc(C=NNC(=O)c3cc(O)cc(O)c3)cc2)nn1)Nc1ccc(Br)cc1 [Compound 11e, N-(4-bromophenyl)-2-(4-((4-((2-(3,5-dihydroxybenzoyl)hydrazono)methyl)phenoxy)methyl)-1H-1,2,3-triazol-1-yl)acetamide]	14.13 ± 2.31%	
O=C(Cn1cc(COc2ccc(C=NNC(=O)c3cc(O)cc(O)c3)cc2)nn1)Nc1ccc(Cl)cc1Cl [Compound 11f, N-(2,4-dichlorophenyl)-2-(4-((4-((2-(3,5-dihydroxybenzoyl)hydrazineylidene)methyl)phenoxy)methyl)-1H-1,2,3-triazol-1-yl)acetamide]	19.54 ± 2.48%	
O=C(Cn1cc(COc2ccc(C=NNC(=O)c3cc(O)cc(O)c3)cc2)nn1)Nc1c(Cl)cccc1Cl [Compound 11g, N-(2,6-dichlorophenyl)-2-(4-((4-((2-(3,5-dihydroxybenzoyl)hydrazineylidene)methyl)phenoxy)methyl)-1H-1,2,3-triazol-1-yl)Acetamide]	27.87 ± 1.83%	
O=C(Cn1cc(COc2ccc(C=NNC(=O)c3cc(O)cc(O)c3)cc2)nn1)Nc1ccc([N+](=O)[O-])cc1 [Compound 11h, 2-(4-((4-((2-(3,5-dihydroxybenzoyl)hydrazineylidene)methyl)phenoxy)methyl)-1H-1,2,3-triazol-1-yl)-N-(4-nitrophenyl)Acetamide]	22.74 ± 2.86%	
Cc1cc([N+](=O)[O-])ccc1NC(=O)Cn1cc(COc2ccc(C=NNC(=O)c3cc(O)cc(O)c3)cc2)nn1 [Compound 11i, 2-(4-((4-((2-(3,5-dihydroxybenzoyl)hydrazineylidene)methyl)phenoxy)methyl)-1H-1,2,3-triazol-1-yl)-N-(2-methyl-4-nitrophenyl)acetamide]	15.05 ± 2.29%	
Cc1ccc(NC(=O)Cn2cc(COc3ccc(C=NNC(=O)c4cc(O)cc(O)c4)cc3)nn2)cc1 [Compound 11j, 2-(4-((4-((2-(3,5-dihydroxybenzoyl)hydrazono)methyl)phenoxy)methyl)-1H-1,2,3-triazol-1-yl)-N-(p-tolyl)acetamide]	15.22 ± 4.33%	
Cc1cccc(C)c1NC(=O)Cn1cc(COc2ccc(C=NNC(=O)c3cc(O)cc(O)c3)cc2)nn1 [Compound 11k, 2-(4-((4-((2-(3,5-dihydroxybenzoyl)hydrazineylidene)methyl)phenoxy)methyl)-1H-1,2,3-triazol-1-yl)-N-(2,6-dimethylphenyl)Acetamide]	38.59 ± 0.74%	
CCc1ccc(NC(=O)Cn2cc(COc3ccc(C=NNC(=O)c4cc(O)cc(O)c4)cc3)nn2)cc1 [Compound 11l, 2-(4-((4-((2-(3,5-dihydroxybenzoyl)hydrazineylidene)methyl)phenoxy)methyl)-1H-1,2,3-triazol-1-yl)-N-(4-ethylphenyl)acetamide]	55.52 ± 4.63%	IC50 (tyrosinase [1]): 87.5 µM
COc1ccc(NC(=O)Cn2cc(COc3ccc(C=NNC(=O)c4cc(O)cc(O)c4)cc3)nn2)cc1 [Compound 11m, 2-(4-((4-((2-(3,5-dihydroxybenzoyl)hydrazineylidene)methyl)phenoxy)methyl)-1H-1,2,3-triazol-1-yl)-N-(4-methoxyphenyl)acetamide]	78.81 ± 7.35%	mode of inhibition (tyrosinase [2]; Lineweaver–Burk plot): competitive; Ki (tyrosinase [2]; secondary plot of Km vs inhibitor concentration, L-DOPA, read-out: dissociation constant Ki): 52.8 µM; IC50 (tyrosinase [1]): 55.4 µM
O=C(Cn1cc(COc2ccc(C=NNC(=O)c3cc(O)cc(O)c3)cc2)nn1)NCc1ccccc1 [Compound 11n, N-benzyl-2-(4-((4-((2-(3,5-dihydroxybenzoyl)hydrazineylidene)methyl)phenoxy)methyl)-1H-1,2,3-triazol-1-yl)acetamide]	17.48 ± 1.79%	
CCOc1cc(/C=N/NC(=O)c2ccc(O)c(OC)c2)ccc1O [Compound C]		IC50 (mushroom tyrosinase): 1.58 µM
O=C(N/N=C/c1ccc(Cl)cc1)c1ccc(O)cc1 [Compound E]		IC50 (mushroom tyrosinase): 7.57 ± 0.01 µM
Clc1ccc(Cn2cc(COc3ccc(-c4nc5ccccc5[nH]4)cc3)nn2)cc1Cl [Compound F]		IC50 (mushroom tyrosinase): 9.42 µM
O=C1NC(=O)C(=Cc2ccc(OCc3cn(Cc4ccccc4Cl)nn3)cc2)C(=O)N1 [Compound G]		IC50 (mushroom tyrosinase): 29.9 µM
NC(=S)N/N=C/c1ccc(OCc2cn(CC(=O)NCc3ccccc3)nn2)cc1 [Compound H]		melanin content (skin melanoma cells): 39.8%; IC50 (mushroom tyrosinase; L-DOPA as substrate): 0.17 µM; IC50 (mushroom tyrosinase; L-tyrosine as substrate): 0.11 µM
CC(=O)c1cccc(NC(=O)COC(=O)/C=C/c2ccc(O)cc2O)c1 [D]		IC50 (mushroom tyrosinase): 0.002 µM
O=c1cc(CO)occ1O [Kojic acid, reference compound]	23.64 ± 2.56%	
